In PMC6379368, “Extracellular and intracellular small-molecule galectin-3 inhibitors” (Scientific Reports, 2019):

Tests used:
[1] = system: PanC-1 cells; assay: Growth curves, PanC-1; format: cell-based; details: PanC-1, 10 µM
Method: (§1) METHODS (not described in main article)
(§2) The AsPC-1, BxPc-3, MIA PaCa-2, and PanC-1 pancreatic cancer cell lines were purchased from the American Type Culture Collection (ATCC) (Manassas, VA, USA). AsPC-1 and BxPc-3 cell lines were cultured in RPMI-1640 medium, and MIA PaCa-2 and PanC-1 in Dulbecco's Modified Eagle Medium (DMEM)/Ham's F12 medium mixture (1:1). The medium of all four pancreatic cancer cell lines was supplemented with 10 % fetal bovine serum (FBS), 100 U/ml penicillin, and 100 μg/ml streptomycin. The L56Br-C1 breast cancer cell line was established at Lund University (Lund, Sweden)1, and was cultured in RPMI-1640 medium supplemented with 10 % heat-inactivated FBS, 100 U/ml penicillin, 100 μg/ml streptomycin, 1 mM non-essential amino acids, and 10 µg/ml insulin. The MCF-10A normal-like breast cell line was obtained from ATCC and was cultured in the same medium mixture as L56Br-C1 with the addition of 20 ng/ml epidermal growth factor, 50 ng/ml cholera toxin, and 500 ng/ml hydrocortisone.
(§3) Fluorescence anisotropy assay
(§4) The affinity between inhibitor 1 and the carbohydrate recognition domain (CRD) of galectin-8C and between inhibitor 3 and the CRD of galectin-2, -4N, -4C, 8C, and -9C was determined using the fluorescence anisotropy assay described in the main article. Experimental conditions used for each galectin […]

[2] = system: galectin-1; parameters: method as in Delaine et al., Salameh et al., Peterson et al.; details: lower compared to galectin-3; ref Delaine et al., Salameh et al., Peterson et al.; cited from earlier work
[3] = system: MIA PaCa-2 cells; assay: Growth curves, MIA PaCa-2; format: cell-based; details: MIA PaCa-2, 10 µM
Method: as §1, §2, §3, §4

[4] = system: HCC1937 cells; assay: MTT cell viability assay, HCC1937; format: cell-based; details: HCC1937, 72 hours, 0.04–40 µM for 1 and 2, 0.04–20 µM for 3
Method: The MTT (3-[4,5-dimethylthiazol-2-yl]−2,5-diphenyltetrazolium bromide) assays were performed as previously described. […] The cells were incubated for 24 hours before addition of galectin-3 inhibitors. The inhibitors were diluted in PBS from their respective stock solution in DMSO (see Galectin-3 inhibitors) and used at final concentrations ranging from 0.04 to 40 μM. DMSO was adjusted to make the final DMSO concentration 0.2% for all inhibitor concentrations, including the control sample (no inhibitor). After 72 hours of treatment, 20 μl of 5 mg/ml MTT solution (in PBS) was added to each well and incubation continued for 1 hour at 37 °C. Thereafter, the MTT containing medium was removed and 100 μl of DMSO was added per well and the plates swirled gently for 10 minutes to dissolve the cells and the purple formazan product precipitate. Absorbance was monitored at 540 nm using a Labsystems iEMS Reader MF (Labsystems Oy, Helsinki, Finland) and the software DeltaSoft II v.4.14 (Biometallics Inc., Princeton, NJ, USA).

[5] = system: BxPc-3 cells; assay: Growth curves, BxPc-3; format: cell-based; details: BxPc-3, 10 µM
Method: as §1, §2, §3, §4

[6] = system: MCF-10A cells; assay: MTT assay, MCF-10A normal-like breast cell line; format: cell-based; details: 72 hours
Method: The MTT (3-[4,5-dimethylthiazol-2-yl]−2,5-diphenyltetrazolium bromide) assays were performed as previously described. In brief, cells were seeded in 96-well plates (6000 cells/well for MCF-7 and HCC1937 and 5000 cells for JIMT-1 in 180 μl fully-supplemented medium as described under Cell culture). The cells were incubated for 24 hours before addition of galectin-3 inhibitors. The inhibitors were diluted in PBS from their respective stock solution in DMSO (see Galectin-3 inhibitors) and used at final concentrations ranging from 0.04 to 40 μM. DMSO was adjusted to make the final DMSO concentration 0.2% for all inhibitor concentrations, including the control sample (no inhibitor). After 72 hours of treatment, 20 μl of 5 mg/ml MTT solution (in PBS) was added to each well and incubation continued for 1 hour at 37 °C. […] Absorbance was monitored at 540 nm using a Labsystems iEMS Reader MF (Labsystems Oy, Helsinki, Finland) and the software DeltaSoft II v.4.14 (Biometallics Inc., Princeton, NJ, USA). […]
as §3
The affinity between inhibitor 1 and the carbohydrate recognition domain (CRD) of galectin-8C and between inhibitor 3 and the CRD of galectin-2, -4N, -4C, 8C, and -9C was determined using the fluorescence anisotropy assay described in the main article. […]

## OC[C@H]1O[C@@H](S[C@@H]2O[C@H](CO)[C@H](O)[C@H](n3cc(-c4cccc(F)c4)nn3)[C@H]2O)[C@H](O)[C@@H](n2cc(-c3cccc(F)c3)nn2)[C@H]1O [compound 1]
[1]
  cell proliferation (growth curves): no effect
[2]
  affinity for galectin-1: high affinity
[3]
  cell proliferation (growth curves): no effect
[4]
  cell viability (MTT): no apparent change in cell viability
[5]
  cell proliferation (growth curves): no effect
[6]
  toxicity (MTT): low toxicity
